According to publication PMC9030254, “Target Hopping from Protein Kinases to PXR: Identification of Small-Molecule Protein Kinase Inhibitors as Selective Modulators of Pregnane X Receptor from TüKIC Library” (Cells, 2022):

What was measured:
Assay in all cases: Kinase profiling
Format in all cases: biochemical
AuroraB = target: T1, AuroraB (Homo sapiens, UniProt Q96GD4)
T1 construct: purchased ProQinase (Freiburg, Germany)
Method: (§1) The analysis was performed by ProQinase (Freiburg, Germany).

CDK8/CycC = target: T2, CDK8/CycC (Homo sapiens, UniProt P49336)
T2 construct: purchased ProQinase (Freiburg, Germany)
Method: as §1

DYRK1B = target: T3, DYRK1B (Homo sapiens, UniProt Q9Y463)
T3 construct: purchased ProQinase (Freiburg, Germany)
Method: as §1

JNK2 = target: T4, JNK2 (Homo sapiens, UniProt P45984)
T4 construct: purchased ProQinase (Freiburg, Germany)
Method: as §1

NEK3 = target: T5, NEK3 (Homo sapiens, UniProt P51956)
T5 construct: purchased ProQinase (Freiburg, Germany)
T5 sequence (P51956 1-506): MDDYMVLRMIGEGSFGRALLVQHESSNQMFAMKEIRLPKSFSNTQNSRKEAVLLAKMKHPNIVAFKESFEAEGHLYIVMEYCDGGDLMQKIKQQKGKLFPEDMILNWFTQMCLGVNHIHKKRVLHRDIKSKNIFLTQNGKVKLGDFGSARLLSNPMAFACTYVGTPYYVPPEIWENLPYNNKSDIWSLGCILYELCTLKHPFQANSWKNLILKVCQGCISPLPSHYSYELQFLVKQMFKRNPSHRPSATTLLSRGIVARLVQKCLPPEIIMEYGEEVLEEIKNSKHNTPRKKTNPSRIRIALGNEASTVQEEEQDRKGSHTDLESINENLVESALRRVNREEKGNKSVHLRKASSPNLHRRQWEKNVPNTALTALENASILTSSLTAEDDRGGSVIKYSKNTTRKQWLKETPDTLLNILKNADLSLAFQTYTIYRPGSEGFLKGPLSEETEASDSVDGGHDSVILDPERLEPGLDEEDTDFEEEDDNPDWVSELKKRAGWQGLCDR
Method: as §1

PAK7 = target: T6, PAK7 (Homo sapiens, UniProt Q9P286)
T6 construct: purchased ProQinase (Freiburg, Germany)
Method: as §1

PDK1 = target: T7, PDK1 (Homo sapiens, UniProt O15530)
T7 construct: purchased ProQinase (Freiburg, Germany)
T7 sequence (O15530 1-556): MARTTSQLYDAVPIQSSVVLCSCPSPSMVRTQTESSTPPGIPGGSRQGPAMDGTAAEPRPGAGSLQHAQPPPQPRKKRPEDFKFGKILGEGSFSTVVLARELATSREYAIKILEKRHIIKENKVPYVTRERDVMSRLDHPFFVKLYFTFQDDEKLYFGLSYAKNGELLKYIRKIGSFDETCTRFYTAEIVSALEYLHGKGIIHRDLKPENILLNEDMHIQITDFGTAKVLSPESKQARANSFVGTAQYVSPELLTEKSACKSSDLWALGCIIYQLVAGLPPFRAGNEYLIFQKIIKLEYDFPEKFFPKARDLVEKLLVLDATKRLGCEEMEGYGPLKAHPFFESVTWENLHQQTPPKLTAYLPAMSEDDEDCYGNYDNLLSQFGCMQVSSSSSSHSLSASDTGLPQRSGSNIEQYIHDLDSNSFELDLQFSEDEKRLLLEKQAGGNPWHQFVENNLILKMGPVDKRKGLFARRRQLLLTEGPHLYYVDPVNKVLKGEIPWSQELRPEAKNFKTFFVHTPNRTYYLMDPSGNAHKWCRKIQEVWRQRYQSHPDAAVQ
Method: as §1

RET = target: T8, RET (Homo sapiens, UniProt P07949)
T8 construct: purchased ProQinase (Freiburg, Germany)
Method: as §1

RPS6KA5 = target: T9, RPS6KA5 (Homo sapiens, UniProt O75582)
T9 construct: purchased ProQinase (Freiburg, Germany)
Method: as §1

SAK = target: T10, SAK (Homo sapiens, UniProt O00444)
T10 construct: purchased ProQinase (Freiburg, Germany)
T10 sequence (O00444 1-970): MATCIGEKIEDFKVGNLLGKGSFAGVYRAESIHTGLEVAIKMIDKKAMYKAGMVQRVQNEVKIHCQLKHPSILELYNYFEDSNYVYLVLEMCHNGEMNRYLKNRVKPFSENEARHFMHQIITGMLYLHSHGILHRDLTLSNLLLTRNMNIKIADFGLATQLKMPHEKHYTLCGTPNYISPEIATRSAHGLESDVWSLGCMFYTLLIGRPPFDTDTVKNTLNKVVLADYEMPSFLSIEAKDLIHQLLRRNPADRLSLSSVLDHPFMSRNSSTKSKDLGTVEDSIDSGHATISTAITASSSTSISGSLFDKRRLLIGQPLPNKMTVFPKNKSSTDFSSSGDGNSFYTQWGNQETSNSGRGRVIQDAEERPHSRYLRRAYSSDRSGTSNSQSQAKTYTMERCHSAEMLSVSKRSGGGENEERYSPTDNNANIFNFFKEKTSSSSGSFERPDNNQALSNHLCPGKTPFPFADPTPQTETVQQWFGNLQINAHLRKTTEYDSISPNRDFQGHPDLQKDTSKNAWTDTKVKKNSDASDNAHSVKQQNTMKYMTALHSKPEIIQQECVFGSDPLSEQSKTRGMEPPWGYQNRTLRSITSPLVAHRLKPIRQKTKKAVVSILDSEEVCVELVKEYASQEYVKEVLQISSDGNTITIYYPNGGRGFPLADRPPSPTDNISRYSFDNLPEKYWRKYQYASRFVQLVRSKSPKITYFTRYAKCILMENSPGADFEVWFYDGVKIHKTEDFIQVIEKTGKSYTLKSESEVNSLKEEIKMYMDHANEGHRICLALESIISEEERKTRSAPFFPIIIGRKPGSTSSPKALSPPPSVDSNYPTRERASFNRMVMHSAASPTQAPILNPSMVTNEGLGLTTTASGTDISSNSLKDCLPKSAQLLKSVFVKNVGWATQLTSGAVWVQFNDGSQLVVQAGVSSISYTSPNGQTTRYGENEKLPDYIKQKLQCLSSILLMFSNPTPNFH
Method: as §1

SRPK2 = target: T11, SRPK2 (Homo sapiens, UniProt P78362)
T11 construct: purchased ProQinase (Freiburg, Germany)
Method: as §1

T1 sequence (Q96GD4 whole entry): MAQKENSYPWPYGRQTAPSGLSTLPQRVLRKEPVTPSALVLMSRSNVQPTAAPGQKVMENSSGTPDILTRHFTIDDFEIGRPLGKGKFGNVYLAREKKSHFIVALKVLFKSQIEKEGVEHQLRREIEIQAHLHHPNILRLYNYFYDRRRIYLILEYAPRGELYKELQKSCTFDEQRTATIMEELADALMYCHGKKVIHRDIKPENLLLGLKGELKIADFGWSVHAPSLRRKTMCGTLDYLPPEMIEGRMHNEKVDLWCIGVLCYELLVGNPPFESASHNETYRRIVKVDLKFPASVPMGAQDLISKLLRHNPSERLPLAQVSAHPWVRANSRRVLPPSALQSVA
T11 sequence (P78362 whole entry): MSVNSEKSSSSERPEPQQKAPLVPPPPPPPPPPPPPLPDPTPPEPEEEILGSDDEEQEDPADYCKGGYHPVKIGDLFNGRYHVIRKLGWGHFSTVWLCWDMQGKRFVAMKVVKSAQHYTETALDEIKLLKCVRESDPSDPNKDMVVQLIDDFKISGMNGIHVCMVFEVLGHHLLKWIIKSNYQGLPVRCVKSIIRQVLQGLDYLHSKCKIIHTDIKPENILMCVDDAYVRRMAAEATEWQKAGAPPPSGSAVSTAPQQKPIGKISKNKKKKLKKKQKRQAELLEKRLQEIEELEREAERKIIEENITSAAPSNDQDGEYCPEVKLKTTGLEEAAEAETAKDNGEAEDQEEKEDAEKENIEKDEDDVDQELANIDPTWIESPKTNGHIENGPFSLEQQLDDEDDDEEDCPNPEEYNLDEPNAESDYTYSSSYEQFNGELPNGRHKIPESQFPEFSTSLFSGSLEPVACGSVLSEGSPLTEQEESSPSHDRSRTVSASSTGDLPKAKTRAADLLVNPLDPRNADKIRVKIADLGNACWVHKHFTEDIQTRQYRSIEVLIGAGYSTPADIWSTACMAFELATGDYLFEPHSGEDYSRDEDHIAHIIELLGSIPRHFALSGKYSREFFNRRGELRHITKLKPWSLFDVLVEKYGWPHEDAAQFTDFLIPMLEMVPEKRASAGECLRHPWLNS
T2 sequence (P49336 whole entry): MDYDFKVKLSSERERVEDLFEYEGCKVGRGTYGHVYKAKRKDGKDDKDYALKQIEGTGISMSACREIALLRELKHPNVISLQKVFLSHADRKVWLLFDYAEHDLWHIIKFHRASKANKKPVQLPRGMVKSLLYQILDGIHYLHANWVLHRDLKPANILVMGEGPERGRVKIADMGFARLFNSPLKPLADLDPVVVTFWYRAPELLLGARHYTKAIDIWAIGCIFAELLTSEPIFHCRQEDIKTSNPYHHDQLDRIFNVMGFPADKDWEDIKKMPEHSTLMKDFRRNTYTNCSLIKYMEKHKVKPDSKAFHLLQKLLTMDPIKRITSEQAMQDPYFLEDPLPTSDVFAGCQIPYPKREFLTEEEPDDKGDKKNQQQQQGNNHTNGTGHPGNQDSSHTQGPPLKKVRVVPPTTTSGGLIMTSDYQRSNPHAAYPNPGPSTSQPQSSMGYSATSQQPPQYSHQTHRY
T2 sequence (P24863 whole entry partner): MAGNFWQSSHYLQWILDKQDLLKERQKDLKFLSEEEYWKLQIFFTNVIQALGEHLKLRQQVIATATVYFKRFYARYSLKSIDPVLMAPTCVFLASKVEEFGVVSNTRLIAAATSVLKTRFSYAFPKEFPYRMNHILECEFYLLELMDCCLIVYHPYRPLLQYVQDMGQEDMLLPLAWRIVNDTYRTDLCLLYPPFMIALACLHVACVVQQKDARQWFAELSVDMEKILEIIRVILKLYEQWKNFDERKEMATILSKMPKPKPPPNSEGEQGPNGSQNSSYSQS
T8 sequence (P07949 29-1114): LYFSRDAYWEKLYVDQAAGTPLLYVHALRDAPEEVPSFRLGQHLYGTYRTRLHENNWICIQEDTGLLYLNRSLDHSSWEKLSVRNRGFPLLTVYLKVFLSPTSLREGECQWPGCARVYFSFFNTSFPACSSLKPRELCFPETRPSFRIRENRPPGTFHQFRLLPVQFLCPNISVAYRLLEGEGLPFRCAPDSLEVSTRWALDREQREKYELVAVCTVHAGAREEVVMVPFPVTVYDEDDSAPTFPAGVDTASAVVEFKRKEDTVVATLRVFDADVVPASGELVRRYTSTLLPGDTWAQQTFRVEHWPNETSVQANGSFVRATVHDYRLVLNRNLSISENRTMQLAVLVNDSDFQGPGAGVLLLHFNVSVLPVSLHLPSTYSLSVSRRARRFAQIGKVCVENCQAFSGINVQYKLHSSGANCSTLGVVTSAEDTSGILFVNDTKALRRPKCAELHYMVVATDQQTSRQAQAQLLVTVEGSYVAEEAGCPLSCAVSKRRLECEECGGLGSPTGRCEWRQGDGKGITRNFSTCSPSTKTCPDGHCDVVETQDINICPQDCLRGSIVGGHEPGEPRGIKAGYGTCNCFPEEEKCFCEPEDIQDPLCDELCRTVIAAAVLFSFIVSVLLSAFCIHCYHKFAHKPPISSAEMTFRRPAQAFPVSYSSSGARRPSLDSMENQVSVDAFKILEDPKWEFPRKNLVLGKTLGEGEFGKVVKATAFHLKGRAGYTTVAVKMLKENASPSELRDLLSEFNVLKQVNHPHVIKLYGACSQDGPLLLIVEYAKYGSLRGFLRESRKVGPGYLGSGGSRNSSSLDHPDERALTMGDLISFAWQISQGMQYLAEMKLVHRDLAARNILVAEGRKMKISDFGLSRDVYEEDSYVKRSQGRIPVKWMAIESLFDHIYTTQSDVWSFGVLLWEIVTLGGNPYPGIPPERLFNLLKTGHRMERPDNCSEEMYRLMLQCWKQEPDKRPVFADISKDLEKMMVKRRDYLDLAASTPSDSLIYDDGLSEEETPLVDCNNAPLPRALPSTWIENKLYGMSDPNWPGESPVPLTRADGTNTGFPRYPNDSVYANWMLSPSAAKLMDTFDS
T9 sequence (O75582 whole entry): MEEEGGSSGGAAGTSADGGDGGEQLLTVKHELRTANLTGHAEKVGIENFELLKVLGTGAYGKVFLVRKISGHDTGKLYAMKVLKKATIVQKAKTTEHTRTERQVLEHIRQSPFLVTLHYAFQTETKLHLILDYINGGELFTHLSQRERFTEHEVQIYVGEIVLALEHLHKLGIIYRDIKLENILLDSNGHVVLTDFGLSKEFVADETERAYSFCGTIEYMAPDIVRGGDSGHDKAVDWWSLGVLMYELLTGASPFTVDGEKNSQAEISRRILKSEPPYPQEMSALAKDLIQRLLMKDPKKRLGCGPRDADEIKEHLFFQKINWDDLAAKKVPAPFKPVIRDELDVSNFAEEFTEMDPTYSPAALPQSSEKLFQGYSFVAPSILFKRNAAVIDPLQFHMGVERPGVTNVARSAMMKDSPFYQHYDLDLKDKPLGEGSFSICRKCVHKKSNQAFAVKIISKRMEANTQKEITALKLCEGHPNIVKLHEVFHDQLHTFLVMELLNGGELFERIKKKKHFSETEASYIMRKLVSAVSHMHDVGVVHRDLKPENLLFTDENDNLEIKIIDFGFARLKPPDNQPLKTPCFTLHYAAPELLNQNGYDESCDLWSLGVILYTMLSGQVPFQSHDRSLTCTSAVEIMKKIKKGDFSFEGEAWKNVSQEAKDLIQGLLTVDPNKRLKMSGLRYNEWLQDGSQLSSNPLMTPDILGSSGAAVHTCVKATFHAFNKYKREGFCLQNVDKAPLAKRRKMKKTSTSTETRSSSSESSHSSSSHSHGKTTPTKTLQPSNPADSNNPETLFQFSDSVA
T3 sequence (Q9Y463 whole entry): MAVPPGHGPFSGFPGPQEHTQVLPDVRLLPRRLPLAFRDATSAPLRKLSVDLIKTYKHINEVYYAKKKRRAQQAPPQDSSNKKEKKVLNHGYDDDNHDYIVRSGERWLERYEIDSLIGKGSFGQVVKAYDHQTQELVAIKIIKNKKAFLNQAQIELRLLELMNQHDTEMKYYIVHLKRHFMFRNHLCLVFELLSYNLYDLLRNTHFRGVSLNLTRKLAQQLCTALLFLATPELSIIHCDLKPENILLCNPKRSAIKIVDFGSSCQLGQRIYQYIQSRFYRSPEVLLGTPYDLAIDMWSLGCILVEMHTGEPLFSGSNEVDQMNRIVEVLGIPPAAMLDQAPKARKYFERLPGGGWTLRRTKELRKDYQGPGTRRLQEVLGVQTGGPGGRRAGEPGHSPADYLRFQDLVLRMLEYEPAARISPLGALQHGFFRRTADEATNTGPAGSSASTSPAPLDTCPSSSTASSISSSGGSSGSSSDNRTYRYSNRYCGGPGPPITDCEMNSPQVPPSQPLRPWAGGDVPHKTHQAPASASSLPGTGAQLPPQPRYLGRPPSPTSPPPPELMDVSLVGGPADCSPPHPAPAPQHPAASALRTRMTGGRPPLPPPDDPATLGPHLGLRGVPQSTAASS
T4 sequence (P45984 whole entry): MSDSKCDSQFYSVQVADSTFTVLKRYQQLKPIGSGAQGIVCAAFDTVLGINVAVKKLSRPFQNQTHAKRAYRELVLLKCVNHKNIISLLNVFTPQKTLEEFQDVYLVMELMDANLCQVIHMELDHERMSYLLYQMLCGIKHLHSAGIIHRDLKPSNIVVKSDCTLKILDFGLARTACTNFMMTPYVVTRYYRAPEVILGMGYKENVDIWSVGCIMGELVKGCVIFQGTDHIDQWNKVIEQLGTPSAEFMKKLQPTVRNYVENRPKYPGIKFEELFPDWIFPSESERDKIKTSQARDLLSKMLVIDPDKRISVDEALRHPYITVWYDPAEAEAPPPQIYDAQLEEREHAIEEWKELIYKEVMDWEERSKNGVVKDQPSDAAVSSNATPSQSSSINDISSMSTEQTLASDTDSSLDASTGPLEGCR

Row | Structure (SMILES) | Residual activity (AuroraB; 1.0E-05 M) | Residual activity (AuroraB; 1.0E-06 M) | Residual activity (CDK8/CycC; 1.0E-05 M) | Residual activity (CDK8/CycC; 1.0E-06 M) | Residual activity (DYRK1B; 1.0E-05 M) | Residual activity (DYRK1B; 1.0E-06 M) | Residual activity (JNK2; 1.0E-05 M) | Residual activity (JNK2; 1.0E-06 M) | Residual activity (NEK3; 1.0E-05 M) | Residual activity (NEK3; 1.0E-06 M) | Residual activity (PAK7; 1.0E-05 M) | Residual activity (PAK7; 1.0E-06 M) | Residual activity (PDK1; 1.0E-05 M) | Residual activity (PDK1; 1.0E-06 M) | Residual activity (RET; 1.0E-05 M) | Residual activity (RET; 1.0E-06 M) | Residual activity (RPS6KA5; 1.0E-05 M) | Residual activity (RPS6KA5; 1.0E-06 M) | Residual activity (SAK; 1.0E-05 M) | Residual activity (SAK; 1.0E-06 M) | other results
1 | O=C(Nc1ccc(F)c(Nc2ccc3c(c2)CCCCC3=O)c1)c1cccc(F)c1 [Compound 109] | 85 % of control | 101 % of control | 61 % of control | 79 % of control | 96 % of control | 103 % of control | 97 % of control | 88 % of control | 97 % of control | 96 % of control | 93 % of control | 101 % of control | 80 % of control | 98 % of control | 89 % of control | 95 % of control | 93 % of control | 96 % of control | 71 % of control | 89 % of control | Residual activity (SRPK2; 1.0E-05 M): 102 % of control; Residual activity (SRPK2; 1.0E-06 M): 111 % of control
2 | O=C(Cc1ccccc1)Nc1ccc(F)c(Nc2ccc3c(c2)CCCCC3=O)c1 [Compound 100] | 90 % of control | 101 % of control | 60 % of control | 82 % of control | 117 % of control | 103 % of control | 79 % of control | 87 % of control | 92 % of control | 104 % of control | 92 % of control | 99 % of control | 57 % of control | 102 % of control | 70 % of control | 91 % of control | 97 % of control | 104 % of control | 81 % of control | 92 % of control | Residual activity (SRPK2; 1.0E-05 M): 94 % of control; Residual activity (SRPK2; 1.0E-06 M): 100 % of control
